Organism: Rattus norvegicus
Test: Open TG-GATES - Regimen: Single
Assay type: toxicity, organism-based, Sprague-Dawley
Parameters: regimen Single, gender Male, age 6 weeks
Conditions: in vivo, po, route gavage; for APTT / Bas / Eos / Fbg / Hb / Lym / MCH / MCHC / MCV / Mono / PT / Plat / RBC / Ret / WBC / Ht / Neu: tissue Blood; for KIDNEY_L / KIDNEY_R / KIDNEY_TOTAL: tissue Kidney; for LIVER: tissue Liver
[1] = 60 mg/kg, 24 h, tissue Plasma, dose level Low
[2] = 200 mg/kg, 3 h, dose level Middle
[3] = 200 mg/kg, 3 h, tissue Plasma, dose level Middle
[4] = 200 mg/kg, 6 h, dose level Middle
[5] = 200 mg/kg, 6 h, tissue Plasma, dose level Middle
[6] = 200 mg/kg, 9 h, dose level Middle
[7] = 200 mg/kg, 9 h, tissue Plasma, dose level Middle
[8] = 200 mg/kg, 24 h, dose level Middle
[9] = 200 mg/kg, 24 h, tissue Plasma, dose level Middle
[10] = 400 mg/kg, 3 h, dose level High
[11] = 400 mg/kg, 3 h, tissue Plasma, dose level High
[12] = 400 mg/kg, 6 h, dose level High
[13] = 400 mg/kg, 6 h, tissue Plasma, dose level High
[14] = 400 mg/kg, 9 h, dose level High
[15] = 400 mg/kg, 9 h, tissue Plasma, dose level High
[16] = 400 mg/kg, 24 h, dose level High
[17] = 400 mg/kg, 24 h, tissue Plasma, dose level High

What does the source list for `CC(C)Cc1ccc(C(C)C(=O)O)cc1` (stereo not drawn) [IBUPROFEN]?
TG [1]: 83.2 mg/dL; TP [1]: 5.5 g/dL; gamma-GTP [1]: 1.4 IU/L; TERMINAL_BW [2]: 203.6 g; APTT [2]: 21.7 s; Bas [2]: 0%; Eos [2]: 0.8%; Fbg [2]: 294 mg/dL; Hb [2]: 13 g/dL; Lym [2]: 78.6%; MCH [2]: 21.8 pg; MCHC [2]: 33.8%; MCV [2]: 64.6 fL; Mono [2]: 1.6%; PT [2]: 15.6 s; Plat [2]: 130.9 x10_4/uL; RBC [2]: 596.8 x10_4/ul; Ret [2]: 8.5%; WBC [2]: 68.9 x10_2/uL; KIDNEY_L [2]: 0.9 g; KIDNEY_R [2]: 0.9 g; KIDNEY_TOTAL [2]: 1.8 g; LIVER [2]: 9.4 g; ALP [3]: 1619.6 IU/L; ALT [3]: 50.2 IU/L; AST [3]: 86.4 IU/L; CRE [3]: 0.2 mg/dL; DBIL [3]: 0.002 mg/dL; GLC [3]: 180 mg/dL; IP [3]: 8.8 mg/dL; K [3]: 4 meq/L; LDH [3]: 307.4 IU/L; Na [3]: 141.6 meq/L; PL [3]: 125.2 mg/dL; RALB [3]: 3.1 g/dL; TBIL [3]: 0.022 mg/dL; TC [3]: 73 mg/dL; TG [3]: 64.2 mg/dL; TP [3]: 5.4 g/dL; gamma-GTP [3]: 1 IU/L; TERMINAL_BW [4]: 197.7 g; Bas [4]: 0%; Eos [4]: 1%; Fbg [4]: 277 mg/dL; Hb [4]: 13.4 g/dL; Ht [4]: 39.7%; Lym [4]: 74.2%; MCHC [4]: 33.7%; MCV [4]: 65.6 fL; Mono [4]: 2.6%; PT [4]: 15.5 s; Plat [4]: 122.9 x10_4/uL; RBC [4]: 605 x10_4/ul; Ret [4]: 8.2%; WBC [4]: 77.7 x10_2/uL; KIDNEY_L [4]: 0.9 g; KIDNEY_R [4]: 0.9 g; KIDNEY_TOTAL [4]: 1.8 g; LIVER [4]: 8.6 g; ALP [5]: 1495.2 IU/L; ALT [5]: 48.6 IU/L; AST [5]: 83.4 IU/L; CRE [5]: 0.2 mg/dL; DBIL [5]: 0.002 mg/dL; GLC [5]: 170.8 mg/dL; IP [5]: 9.6 mg/dL; K [5]: 4.3 meq/L; LDH [5]: 244.8 IU/L; Na [5]: 140.4 meq/L; PL [5]: 110.6 mg/dL; RALB [5]: 2.8 g/dL; TBIL [5]: 0.022 mg/dL; TC [5]: 63.8 mg/dL; TG [5]: 57.2 mg/dL; TP [5]: 5.2 g/dL; gamma-GTP [5]: 1 IU/L; TERMINAL_BW [6]: 200.1 g; APTT [6]: 21.5 s; Bas [6]: 0%; Eos [6]: 0.4%; Fbg [6]: 268.6 mg/dL; Hb [6]: 13.2 g/dL; Ht [6]: 39.7%; Lym [6]: 60.8%; MCHC [6]: 33.3%; MCV [6]: 63.6 fL; Mono [6]: 3%; Neu [6]: 35%; PT [6]: 15.8 s; Plat [6]: 113 x10_4/uL; RBC [6]: 624.6 x10_4/ul; Ret [6]: 7.8%; WBC [6]: 87.7 x10_2/uL; KIDNEY_L [6]: 0.9 g; KIDNEY_R [6]: 0.9 g; KIDNEY_TOTAL [6]: 1.8 g; LIVER [6]: 8.1 g; ALP [7]: 1296.6 IU/L; ALT [7]: 37.4 IU/L; AST [7]: 69.2 IU/L; CRE [7]: 0.2 mg/dL; DBIL [7]: 0.004 mg/dL; GLC [7]: 180.2 mg/dL; K [7]: 4.3 meq/L; LDH [7]: 226.2 IU/L; Na [7]: 140.6 meq/L; RALB [7]: 2.8 g/dL; TBIL [7]: 0.018 mg/dL; TC [7]: 60.6 mg/dL; TG [7]: 50.4 mg/dL; TP [7]: 5 g/dL; gamma-GTP [7]: 1.2 IU/L; TERMINAL_BW [8]: 212.3 g; APTT [8]: 21.5 s; Bas [8]: 0%; Eos [8]: 1%; Fbg [8]: 360 mg/dL; Hb [8]: 12.9 g/dL; Ht [8]: 37.8%; Lym [8]: 66.4%; MCH [8]: 21.7 pg; MCHC [8]: 34.3%; MCV [8]: 63.3 fL; Mono [8]: 4.2%; PT [8]: 16.2 s; Plat [8]: 111.7 x10_4/uL; RBC [8]: 596.8 x10_4/ul; Ret [8]: 7.5%; KIDNEY_L [8]: 0.9 g; KIDNEY_R [8]: 1 g; KIDNEY_TOTAL [8]: 1.9 g; ALP [9]: 1263 IU/L; ALT [9]: 41.4 IU/L; AST [9]: 69.2 IU/L; CRE [9]: 0.2 mg/dL; Ca [9]: 10.4 mg/dL; DBIL [9]: 0 mg/dL; GLC [9]: 182.8 mg/dL; IP [9]: 7.6 mg/dL; K [9]: 4.3 meq/L; LDH [9]: 210.6 IU/L; Na [9]: 141.8 meq/L; PL [9]: 145.2 mg/dL; RALB [9]: 2.7 g/dL; TBIL [9]: 0.002 mg/dL; TC [9]: 77 mg/dL; TG [9]: 141.2 mg/dL; TP [9]: 5 g/dL; gamma-GTP [9]: 1.4 IU/L; TERMINAL_BW [10]: 201.6 g; APTT [10]: 20.6 s; Bas [10]: 0%; Eos [10]: 0.8%; Fbg [10]: 281.4 mg/dL; Hb [10]: 13.2 g/dL; Ht [10]: 39.2%; Lym [10]: 77.2%; MCH [10]: 21.6 pg; MCHC [10]: 33.7%; MCV [10]: 64.2 fL; Mono [10]: 1.6%; Neu [10]: 19.8%; PT [10]: 15.7 s; Plat [10]: 118.2 x10_4/uL; RBC [10]: 610.8 x10_4/ul; Ret [10]: 8.1%; WBC [10]: 69.4 x10_2/uL; KIDNEY_L [10]: 0.9 g; KIDNEY_R [10]: 0.9 g; KIDNEY_TOTAL [10]: 1.8 g; LIVER [10]: 8.7 g; ALP [11]: 1604.2 IU/L; ALT [11]: 52.2 IU/L; AST [11]: 80.4 IU/L; CRE [11]: 0.2 mg/dL; DBIL [11]: 0 mg/dL; GLC [11]: 162 mg/dL; IP [11]: 9.7 mg/dL; K [11]: 4 meq/L; LDH [11]: 264.8 IU/L; Na [11]: 140.6 meq/L; RALB [11]: 2.7 g/dL; TBIL [11]: 0.026 mg/dL; TC [11]: 69.8 mg/dL; TG [11]: 37.8 mg/dL; TP [11]: 5.3 g/dL; gamma-GTP [11]: 1.4 IU/L; TERMINAL_BW [12]: 200.3 g; APTT [12]: 21 s; Bas [12]: 0%; Eos [12]: 1%; Fbg [12]: 283.4 mg/dL; Hb [12]: 13.2 g/dL; Ht [12]: 39.3%; Lym [12]: 72.2%; MCH [12]: 21.5 pg; MCHC [12]: 33.7%; MCV [12]: 63.9 fL; Mono [12]: 2.6%; Neu [12]: 23.4%; PT [12]: 15.5 s; Plat [12]: 116.4 x10_4/uL; RBC [12]: 614.8 x10_4/ul; Ret [12]: 8.2%; WBC [12]: 67.5 x10_2/uL; KIDNEY_L [12]: 0.9 g; KIDNEY_R [12]: 0.9 g; KIDNEY_TOTAL [12]: 1.8 g; LIVER [12]: 8.2 g; ALP [13]: 1535.4 IU/L; ALT [13]: 48.8 IU/L; AST [13]: 76 IU/L; CRE [13]: 0.2 mg/dL; DBIL [13]: 0.006 mg/dL; GLC [13]: 172.8 mg/dL; IP [13]: 9.9 mg/dL; K [13]: 4.2 meq/L; LDH [13]: 246.4 IU/L; Na [13]: 140.2 meq/L; RALB [13]: 2.9 g/dL; TBIL [13]: 0.016 mg/dL; TC [13]: 62.6 mg/dL; TG [13]: 51.8 mg/dL; TP [13]: 5.3 g/dL; gamma-GTP [13]: 1 IU/L; TERMINAL_BW [14]: 204.9 g; APTT [14]: 21.6 s; Bas [14]: 0%; Eos [14]: 0.6%; Fbg [14]: 261.4 mg/dL; Ht [14]: 39.8%; Lym [14]: 63.4%; MCH [14]: 21.3 pg; MCHC [14]: 33.3%; MCV [14]: 63.8 fL; Mono [14]: 3%; Neu [14]: 32.8%; PT [14]: 15.6 s; Plat [14]: 120.1 x10_4/uL; RBC [14]: 624.4 x10_4/ul; Ret [14]: 7.8%; WBC [14]: 76.3 x10_2/uL; KIDNEY_L [14]: 0.9 g; KIDNEY_R [14]: 0.9 g; KIDNEY_TOTAL [14]: 1.8 g; LIVER [14]: 8.2 g; ALP [15]: 1623.8 IU/L; ALT [15]: 43.4 IU/L; AST [15]: 73 IU/L; CRE [15]: 0.2 mg/dL; DBIL [15]: 0.006 mg/dL; GLC [15]: 180.4 mg/dL; IP [15]: 10.2 mg/dL; K [15]: 4.1 meq/L; LDH [15]: 257 IU/L; Na [15]: 140.8 meq/L; PL [15]: 97.4 mg/dL; RALB [15]: 2.8 g/dL; TBIL [15]: 0.016 mg/dL; TC [15]: 53.6 mg/dL; TG [15]: 46.4 mg/dL; TP [15]: 5 g/dL; gamma-GTP [15]: 1 IU/L; TERMINAL_BW [16]: 209.2 g; APTT [16]: 21.1 s; Bas [16]: 0%; Eos [16]: 0.6%; Fbg [16]: 375.8 mg/dL; Hb [16]: 13.1 g/dL; Ht [16]: 38.2%; Lym [16]: 57.2%; MCHC [16]: 34.3%; MCV [16]: 61.7 fL; Mono [16]: 4.2%; Neu [16]: 36.2%; PT [16]: 16.1 s; RBC [16]: 619.4 x10_4/ul; Ret [16]: 6.8%; KIDNEY_L [16]: 0.9 g; KIDNEY_R [16]: 1 g; KIDNEY_TOTAL [16]: 1.9 g; LIVER [16]: 10.1 g; ALP [17]: 1531.4 IU/L; ALT [17]: 44 IU/L; AST [17]: 72.6 IU/L; CRE [17]: 0.2 mg/dL; DBIL [17]: 0.004 mg/dL; GLC [17]: 175.2 mg/dL; IP [17]: 7.5 mg/dL; K [17]: 4.3 meq/L; LDH [17]: 212.4 IU/L; Na [17]: 141 meq/L; PL [17]: 129.4 mg/dL; RALB [17]: 2.7 g/dL; TBIL [17]: 0.002 mg/dL; TG [17]: 104.2 mg/dL; TP [17]: 4.9 g/dL; gamma-GTP [17]: 1 IU/L
